Test results as given in EP0434173A2, “Use of NMDA receptor antagonists for treatment of chronic neurodegenerative diseases” (SCHERING AKTIENGESELLSCHAFT, priority 1989, dated 1991).

System: Dopaminneurone der SNC
Assay: Prevention of MPP^+-induced degeneration of dopamine neurons after local co-injection into the substantia nigra pars compacta; count of intact neurons in cresyl violet stained brain sections
Format: in vivo, Ratten
Conditions: for Anzahl intakter Neurone (Mittelwert ± S.E.M.): right SNC
Excerpt: Zum Nachweis der protectiven Wirkung der erfindungsgemäßen Verbindungen wurde der toxische Metabolit MPP^+ lokal in die Substantia nigra von Ratten injiziert und somit eine rasch fortschreitende Degeneration der Dopaminneuronen bewirkt.

Compound: NC(CCCCCP(=O)(O)O)C(=O)O (stereo not drawn) [AP-7, 2-Amino-7-phosphonoheptansäure]
- Anzahl intakter Neurone (Mittelwert ± S.E.M.) (AP-7 0.025 µmol co-injected with MPP^+ (0.025 µmol pro Seite), 4 h after injection, n=3): 26 ± 2
- Anzahl intakter Neurone (Mittelwert ± S.E.M.) (AP-7 0.1 µmol co-injected with MPP^+ (0.025 µmol pro Seite), 4 h after injection, n=4): 91 ± 24 x
- Anzahl intakter Neurone (Mittelwert ± S.E.M.) (AP-7 0.25 µmol co-injected with MPP^+ (0.025 µmol pro Seite), 4 h after injection, n=9): 128 ± 10 xxx
- Anzahl intakter Neurone (Mittelwert ± S.E.M.) (AP-7 0.25 µmol co-injected with MPP^+ (0.025 µmol pro Seite), 8 h after injection, n=4): 79 ± 9 xx
- Anzahl intakter Neurone (Mittelwert ± S.E.M.) (AP-7 0.25 µmol co-injected with MPP^+ (0.025 µmol pro Seite), 24 h after injection, n=4): 66 ± 16 x
- neurodegenerativer Effekt von MPP^+ auf die Dopaminneuronen (simultaneous local administration with MPP^+ into the substantia nigra of rats, result in words): nahezu vollständig auf
